# Data: US20250154115A1, “ARYLBENZOISOXAZOLE COMPOUNDS AS IP6K AND IPMK INHIBITORS AND METHODS OF USE THEREOF” (THE UNIVERSITY OF NORTH CAROLINA AT CHAPEL HILL, priority 2022, published 2025)
# How the values were obtained:
# Format in all cases: biochemical
# [1] = target: IP6K1 (Homo sapiens (Human), UniProt Q92551); experiment: Enzyme-coupled assay of IP6K1 activity (Dipp1-coupled, malachite green Pi release)
# Description: (§1) […] The cells were disrupted using a constant cell disruption system (Constant Systems) under 20 kPsi.
# (§2) Pi release was determined with a malachite green colorimetric assay.^45 Where indicated, TNP (Cayman Chemical) was added to the assays (FIG. 2A-E).
# [2] = target: IPMK (Homo sapiens (Human), UniProt Q8NFU5); experiment: Enzyme-coupled assay, IPMK IC50
# Chain of IPMK (Q8NFU5 whole entry, species assumed): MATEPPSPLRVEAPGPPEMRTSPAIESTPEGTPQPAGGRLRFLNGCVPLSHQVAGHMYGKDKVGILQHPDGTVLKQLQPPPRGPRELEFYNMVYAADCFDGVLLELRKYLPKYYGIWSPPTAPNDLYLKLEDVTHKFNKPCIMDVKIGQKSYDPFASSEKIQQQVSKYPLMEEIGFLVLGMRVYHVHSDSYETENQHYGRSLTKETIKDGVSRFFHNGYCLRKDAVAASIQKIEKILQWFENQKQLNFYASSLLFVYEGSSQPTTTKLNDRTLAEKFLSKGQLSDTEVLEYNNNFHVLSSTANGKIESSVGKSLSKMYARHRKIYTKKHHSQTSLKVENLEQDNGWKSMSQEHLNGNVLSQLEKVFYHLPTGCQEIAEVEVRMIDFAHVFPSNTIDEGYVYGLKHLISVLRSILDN
# [3] = target: IP6K2 (Homo sapiens (Human), UniProt Q9UHH9); experiment: Enzyme-coupled assay of IP6K2 activity (Dipp1-coupled, malachite green Pi release)
# Chain of IP6K2 (Q9UHH9 whole entry): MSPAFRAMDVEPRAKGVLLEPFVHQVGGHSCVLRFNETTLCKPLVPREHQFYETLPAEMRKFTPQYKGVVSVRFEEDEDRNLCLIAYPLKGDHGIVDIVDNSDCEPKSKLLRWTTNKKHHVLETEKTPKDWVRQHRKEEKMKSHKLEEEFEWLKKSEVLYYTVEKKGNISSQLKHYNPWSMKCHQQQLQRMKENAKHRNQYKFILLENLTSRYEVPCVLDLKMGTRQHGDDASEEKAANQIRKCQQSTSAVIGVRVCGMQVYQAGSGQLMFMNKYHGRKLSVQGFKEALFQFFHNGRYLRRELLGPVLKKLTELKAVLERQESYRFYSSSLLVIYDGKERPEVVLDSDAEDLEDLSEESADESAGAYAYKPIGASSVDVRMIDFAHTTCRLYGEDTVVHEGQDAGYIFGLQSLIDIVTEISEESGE
# Description: as §1, §2
# [4] = determined from enzyme-coupled assays
# Chain of IP6K1 (Q92551 whole entry): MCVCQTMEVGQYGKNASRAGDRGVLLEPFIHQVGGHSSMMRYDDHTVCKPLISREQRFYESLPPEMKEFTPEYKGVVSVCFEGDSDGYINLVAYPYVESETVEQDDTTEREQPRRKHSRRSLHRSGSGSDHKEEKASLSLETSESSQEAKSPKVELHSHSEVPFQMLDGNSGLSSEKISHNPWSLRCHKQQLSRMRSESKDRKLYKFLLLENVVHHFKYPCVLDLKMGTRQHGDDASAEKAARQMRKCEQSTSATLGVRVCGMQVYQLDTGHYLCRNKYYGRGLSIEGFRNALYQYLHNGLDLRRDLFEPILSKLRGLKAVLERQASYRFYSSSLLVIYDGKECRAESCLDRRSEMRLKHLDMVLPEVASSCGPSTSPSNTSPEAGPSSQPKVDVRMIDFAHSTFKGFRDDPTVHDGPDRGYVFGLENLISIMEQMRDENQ
compound,measurement,setting,value
O=c1[nH]c(-c2ccc3noc(-c4cccc(OC5CCNCC5)c4)c3c2)no1 [Cmpd 129],IC50,[1]; [4],10 to 100 nM
same,IC50,[2]; [4],< 10 nM
same,IC50,[3]; [4],10 to 100 nM
CC1(C(=O)N2CCC(Oc3cccc(-c4onc5ccc(-c6noc(=O)[nH]6)cc45)c3)CC2)COC1 [Cmpd 139],IC50,[1]; [4],100 to 1000 nM
same,IC50,[2]; [4],100 to 1000 nM
same,IC50,[3]; [4],10 to 100 nM
c1cc(-c2onc3ccc(-c4nnn[nH]4)cc23)cc(C2CCN(CC3CC3)CC2)c1 [Compound 107],IC50,"[1]; enzyme-coupled assay, Table 4",10 to 100 nM
CNC(=O)c1ccc2noc(-c3cccc(Oc4ncc(Cl)cc4Cl)c3)c2c1 [Compound 31],IC50,"[1]; enzyme-coupled assay, Table 2",100 to 1000 nM
same,IC50,"[2]; enzyme-coupled assay, Table 2",1000 to 100000 nM
same,IC50,"[3]; enzyme-coupled assay, Table 2",100 to 1000 nM
COc1ccc(COc2cncc(-c3cccc(-c4onc5ccc(C(=O)O)cc45)c3)c2)cc1 [Compound 52],IC50,"[1]; enzyme-coupled assay, Table 2",100 to 1000 nM
same,IC50,"[2]; enzyme-coupled assay, Table 2",100 to 1000 nM
same,IC50,"[3]; enzyme-coupled assay, Table 2",100 to 1000 nM
O=c1[nH]c(-c2ccc3noc(-c4cccc(OC5CCN(C6COC6)CC5)c4)c3c2)no1 [Cmpd 134],IC50,[1]; [4],100 to 1000 nM
same,IC50,[2]; [4],100 to 1000 nM
same,IC50,[3]; [4],100 to 1000 nM
Clc1ccc(-c2cccc(-c3onc4ccc(-c5nnn[nH]5)cc34)c2)c(Cl)c1 [Compound 84],IC50,"[1]; enzyme-coupled assay, Table 4",10 to 100 nM
same,IC50,"[2]; enzyme-coupled assay, Table 4",10 to 100 nM
same,IC50,"[3]; enzyme-coupled assay, Table 4",10 to 100 nM
CN1CCC(Oc2cccc(-c3onc4ccc(-c5noc(=O)[nH]5)cc34)c2)CC1 [Cmpd 131],IC50,[1]; [4],100 to 1000 nM
same,IC50,[2]; [4],100 to 1000 nM
same,IC50,[3]; [4],100 to 1000 nM
CNC(=O)c1ccc2noc(-c3ccccc3)c2c1 [Compound 21],IPMK IC50,"[2]; enzyme-coupled assay, Table 2",−
CC1(C(=O)N2CCC(Oc3cccc(-c4onc5ccc(-c6nnn[nH]6)cc45)c3)CC2)COC1 [Compound 93],IC50,"[1]; enzyme-coupled assay, Table 4",100 to 1000 nM
same,IC50,"[3]; enzyme-coupled assay, Table 4",10 to 100 nM
CC(C)C(=O)N1CCC(Oc2cccc(-c3onc4ccc(-c5nnn[nH]5)cc34)c2)CC1 [Compound 90],IC50,"[1]; enzyme-coupled assay, Table 4",10 to 100 nM
same,IC50,"[2]; enzyme-coupled assay, Table 4",< 10 nM
same,IC50,"[3]; enzyme-coupled assay, Table 4",10 to 100 nM
CN1CCC(NC(=O)c2ccc(-c3onc4ccc(C(=O)O)cc34)cc2)CC1 [Compound 40],IC50,"[1]; enzyme-coupled assay, Table 2",1000 to 100000 nM
same,IPMK IC50,"[2]; enzyme-coupled assay, Table 2",−
same,IC50,"[3]; enzyme-coupled assay, Table 2",1000 to 100000 nM
CC(C)(C)OC(=O)Nc1cccc(-c2cccc(-c3onc4ccc(-c5nnn[nH]5)cc34)c2)c1 [Compound 96],IC50,"[1]; enzyme-coupled assay, Table 4",10 to 100 nM
same,IC50,"[3]; enzyme-coupled assay, Table 4",10 to 100 nM
Nc1cccc(-c2cccc(-c3onc4ccc(-c5nnn[nH]5)cc34)c2)c1 [Compound 97],IC50,"[1]; enzyme-coupled assay, Table 4",10 to 100 nM
same,IC50,"[3]; enzyme-coupled assay, Table 4",10 to 100 nM
O=C(Nc1ccc(-c2onc3ccc(-c4nnn[nH]4)cc23)cc1)C1CCCCC1 [Compound 98],IC50,"[1]; enzyme-coupled assay, Table 4",100 to 1000 nM
CCOC(=O)/C=C/c1ccc2noc(-c3ccccc3)c2c1 [Compound 7],IC50,"[1]; enzyme-coupled assay, Table 1",1000 to 100000 nM
same,IC50,"[3]; enzyme-coupled assay, Table 1",1000 to 100000 nM
O=c1[nH]c(-c2ccc3noc(-c4cccc(Oc5ncc(Cl)cc5Cl)c4)c3c2)no1 [Cmpd 127],IC50,[1]; [4],10 to 100 nM
same,IC50,[2]; [4],10 to 100 nM
same,IC50,[3]; [4],10 to 100 nM
O=C(Nc1ccc(-c2onc3ccc(-c4noc(=O)[nH]4)cc23)cc1)[C@@H]1CCCN1 [Cmpd 136],IC50,[1]; [4],100 to 1000 nM
same,IC50,[2]; [4],10 to 100 nM
same,IC50,[3]; [4],100 to 1000 nM
O=C(C1CC1)N1CCC(c2cccc(-c3onc4ccc(-c5nnn[nH]5)cc34)c2)CC1 [Compound 111],IC50,"[1]; enzyme-coupled assay, Table 4",10 to 100 nM
"CC(=O)N1CCC(Oc2cccc(-c3onc4ccc(-c5nnn[nH]5)cc34)c2)CC1 [Compound 85, 1-(4-(3-(5-(1H-tetrazol-5-yl)benzo[c]isoxazol-3-yl)phenoxy)piperidin-1-yl)ethan-1-one]",IC50,"[1]; enzyme-coupled assay, Table 4",< 10 nM
same,IC50,"[2]; enzyme-coupled assay, Table 4",10 to 100 nM
same,IC50,"[3]; enzyme-coupled assay, Table 4",10 to 100 nM
"c1cc(OC2CCN(CC3CC3)CC2)cc(-c2onc3ccc(-c4nnn[nH]4)cc23)c1 [Compound 88, 3-(3-((1-(cyclopropylmethyl)piperidin-4-yl)oxy)phenyl)-5-(1H-tetrazol-5-yl)benzo[c]isoxazole]",IC50,"[1]; enzyme-coupled assay, Table 4",10 to 100 nM
same,IC50,"[2]; enzyme-coupled assay, Table 4",10 to 100 nM
same,IC50,"[3]; enzyme-coupled assay, Table 4",100 to 1000 nM
O=C(O)c1ccc2noc(-c3ccc(OC(F)(F)F)cc3)c2c1 [Compound 23],IC50,"[1]; enzyme-coupled assay, Table 2",1000 to 100000 nM
same,IC50,"[3]; enzyme-coupled assay, Table 2",100 to 1000 nM
CC(C)N1CCC(Oc2cccc(-c3onc4ccc(-c5nnn[nH]5)cc34)c2)CC1 [Compound 87],IC50,"[1]; enzyme-coupled assay, Table 4",10 to 100 nM
same,IC50,"[2]; enzyme-coupled assay, Table 4",10 to 100 nM
same,IC50,"[3]; enzyme-coupled assay, Table 4",10 to 100 nM
CC(=O)N1CCC(c2ccc(-c3onc4ccc(-c5nnn[nH]5)cc34)cc2)CC1 [Compound 119],IC50,"[1]; enzyme-coupled assay, Table 4",100 to 1000 nM
CC(C)C(=O)N1CCC(c2ccc(-c3onc4ccc(-c5nnn[nH]5)cc34)cc2)CC1 [Compound 120],IC50,"[1]; enzyme-coupled assay, Table 4",100 to 1000 nM
O=c1[nH]c(-c2ccc3noc(-c4cccc(OC5CCN(C6CCC6)CC5)c4)c3c2)no1 [Cmpd 133],IC50,[1]; [4],100 to 1000 nM
same,IC50,[2]; [4],10 to 100 nM
same,IC50,[3]; [4],100 to 1000 nM
CC1(COc2cccc(-c3onc4ccc(-c5nnn[nH]5)cc34)c2)COC1 [Cmpd 91],IC50,"[1]; enzyme-coupled assay, Table 4",10 to 100 nM
same,IC50,"[3]; enzyme-coupled assay, Table 4",10 to 100 nM
O=C(Nc1ccc(-c2onc3ccc(-c4nnn[nH]4)cc23)cc1)C1CCNC1 (stereo not shown) [Compound 101],IC50,"[1]; enzyme-coupled assay, Table 4",100 to 1000 nM
O=C(C1CCCC1)N1CCC(Oc2cccc(-c3onc4ccc(-c5nnn[nH]5)cc34)c2)CC1 [Compound 94],IC50,"[1]; enzyme-coupled assay, Table 4",10 to 100 nM
same,IC50,"[3]; enzyme-coupled assay, Table 4",10 to 100 nM
O=C(C1CC1)N1CCC(c2ccc(-c3onc4ccc(-c5nnn[nH]5)cc34)cc2)CC1 [Compound 122],IC50,"[1]; enzyme-coupled assay, Table 4",100 to 1000 nM
CC(C)C(=O)Nc1cccc(-c2onc3ccc(C(=O)O)cc23)c1 [Compound 50],IC50,"[1]; enzyme-coupled assay, Table 2",1000 to 100000 nM
same,IC50,"[2]; enzyme-coupled assay, Table 2",100 to 1000 nM
same,IC50,"[3]; enzyme-coupled assay, Table 2",100 to 1000 nM
c1cc(-c2onc3ccc(-c4nnn[nH]4)cc23)cc(C2CCN(C3CCCC3)CC2)c1 [Compound 114],IC50,"[1]; enzyme-coupled assay, Table 4",100 to 1000 nM
O=C(N1CCC(c2ccc(-c3onc4ccc(-c5nnn[nH]5)cc34)cc2)CC1)C1(F)CC1 [Compound 123],IC50,"[1]; enzyme-coupled assay, Table 4",100 to 1000 nM
CC(C)C(=O)N1CCC(c2cccc(-c3onc4ccc(-c5nnn[nH]5)cc34)c2)CC1 [Compound 109],IC50,"[1]; enzyme-coupled assay, Table 4",10 to 100 nM
O=C(Nc1ccc(-c2onc3ccc(-c4noc(=O)[nH]4)cc23)cc1)C1CNC1 [Cmpd 137],IC50,[1]; [4],100 to 1000 nM
same,IC50,[2]; [4],100 to 1000 nM
same,IC50,[3]; [4],1000 to 100000 nM
COc1ccc(-c2onc3ccc(/C=C/C(=O)O)cc23)cc1 [Compound 13],IC50,"[1]; enzyme-coupled assay, Table 1",100 to 1000 nM
same,IC50,"[3]; enzyme-coupled assay, Table 1",1000 to 100000 nM
O=C(O)c1ccc2noc(-c3ccc(-c4cccnc4)cc3)c2c1 [Compound 57],IC50,"[2]; enzyme-coupled assay, Table 3",10 to 100 nM
c1cc(OC2CNC2)cc(-c2onc3ccc(-c4nnn[nH]4)cc23)c1 [Compound 92],IC50,"[1]; enzyme-coupled assay, Table 4",10 to 100 nM
same,IC50,"[3]; enzyme-coupled assay, Table 4",10 to 100 nM
O=C(N1CCC(c2cccc(-c3onc4ccc(-c5nnn[nH]5)cc34)c2)CC1)C1(F)CC1 [Compound 112],IC50,"[1]; enzyme-coupled assay, Table 4",10 to 100 nM
O=C(O)c1ccc2noc(-c3ccc(NC(=O)C4CCNCC4)cc3)c2c1 [Compound 48],IC50,"[1]; enzyme-coupled assay, Table 2",1000 to 100000 nM
same,IPMK IC50,"[2]; enzyme-coupled assay, Table 2",−
same,IC50,"[3]; enzyme-coupled assay, Table 2",1000 to 100000 nM
c1cc(-c2onc3ccc(-c4nnn[nH]4)cc23)cc(C2CCN(C3CC4(CCC4)C3)CC2)c1 [Compound 113],IC50,"[1]; enzyme-coupled assay, Table 4",100 to 1000 nM
CC(C)(C)OC(=O)N1CC(C(=O)N2CCC(c3cccc(-c4onc5ccc(-c6nnn[nH]6)cc45)c3)CC2)C1 [Compound 115],IC50,"[1]; enzyme-coupled assay, Table 4",100 to 1000 nM
CC1(C(=O)N2CCC(c3ccc(-c4onc5ccc(-c6nnn[nH]6)cc45)cc3)CC2)COC1 [Compound 121],IC50,"[1]; enzyme-coupled assay, Table 4",100 to 1000 nM
Nc1cccc(-c2ccc(-c3onc4ccc(-c5nnn[nH]5)cc34)cc2)c1 [Compound 95],IC50,"[1]; enzyme-coupled assay, Table 4",10 to 100 nM
same,IC50,"[3]; enzyme-coupled assay, Table 4",10 to 100 nM
c1cc2noc(-c3ccc(C4CCN(C5CCC5)CC4)cc3)c2cc1-c1nnn[nH]1 [Compound 118],IC50,"[1]; enzyme-coupled assay, Table 4",10 to 100 nM
O=C(O)c1ccc2noc(-c3cccc(-c4cncc(O)c4)c3)c2c1 [Compound 53],IC50,"[1]; enzyme-coupled assay, Table 2",100 to 1000 nM
same,IC50,"[3]; enzyme-coupled assay, Table 2",100 to 1000 nM
CC(=O)N1CCC(c2cccc(-c3onc4ccc(-c5nnn[nH]5)cc34)c2)CC1 [Compound 106],IC50,"[1]; enzyme-coupled assay, Table 4",10 to 100 nM
CC1(C(=O)N2CCC(c3cccc(-c4onc5ccc(-c6nnn[nH]6)cc45)c3)CC2)COC1 [Compound 108],IC50,"[1]; enzyme-coupled assay, Table 4",100 to 1000 nM
c1cc(-c2onc3ccc(-c4nnn[nH]4)cc23)cc(C2CCNCC2)c1 [Compound 104],IC50,"[1]; enzyme-coupled assay, Table 4",100 to 1000 nM
c1cc(OC2CCN(C3CCC3)CC2)cc(-c2onc3ccc(-c4nnn[nH]4)cc23)c1 [Compound 62],IC50,"[2]; enzyme-coupled assay, Table 4",10 to 100 nM
same,IC50,"[3]; enzyme-coupled assay, Table 4",100 to 1000 nM
O=C(Nc1ccc(-c2onc3ccc(-c4nnn[nH]4)cc23)cc1)C1CCNCC1 [Compound 99],IC50,"[1]; enzyme-coupled assay, Table 4",100 to 1000 nM
O=C(Nc1ccc(-c2onc3ccc(-c4nnn[nH]4)cc23)cc1)[C@@H]1CCCN1 [Compound 100],IC50,"[1]; enzyme-coupled assay, Table 4",100 to 1000 nM
O=C1CC(C(=O)N2CCC(c3cccc(-c4onc5ccc(-c6nnn[nH]6)cc45)c3)CC2)C1 [Compound 110],IC50,"[1]; enzyme-coupled assay, Table 4",10 to 100 nM
CC(C)(C)OC(=O)N1CCCC1C(=O)N1CCC(c2cccc(-c3onc4ccc(-c5nnn[nH]5)cc34)c2)CC1 (stereo not shown) [Compound 116],IC50,"[1]; enzyme-coupled assay, Table 4",100 to 1000 nM
c1cc2noc(-c3ccc(C4CCNCC4)cc3)c2cc1-c1nnn[nH]1 [Compound 117],IC50,"[1]; enzyme-coupled assay, Table 4",100 to 1000 nM
